Where two headings read alike, the source gives them in different places.
Experiments:
[1] = target: T1, PKC isoenzyme δ (Homo sapiens, UniProt Q05655); experiment: Protein kinase C inhibition assay, PKC isoenzyme δ; assay type: biochemical
T1 construct: made in house; host or cells: baculovirus-insect cell expression system
Procedure: (§1) A protein kinase C (PKC) assay is designed to duplicate the in vivo conditions required for protein kinase C function. Therefore, pH, salt and cofactor concentrations are similar to physiologic levels. Either lysine rich histone H1 (H1) or Myelin basic protein (Mbp) are used in the assay as the phosphorylation acceptor-protein because they are readily available and serve as good substrates for protein kinase C. Enzyme was prepared from baculovirus-insect cell expression systems.
(§2) In the screening assay, phosphatidylserine (PS) and DAG were co-sonicated to form unilamellar and multilamellar vesicles. The concentration of lipids in the assay were suboptimal to maximize the detection potential of the assay for inhibitors or activators. Potential effector compounds were added to the assay in dimethylsulfoxide at four concentrations to give final inhibitor concentrations of 1, 10, 50, and 150 μM, respectively.
(§3) The assay was started with the addition of enzyme and stopped after 10 min by the addition of 25% trichloroacetic acid (TCA) and 1.0 mg/ml bovine serum albumin (BSA). The radioactive histone product was retained and washed on glass fiber filters that allow the unreacted P-ATP to pass through. The amount of phosphorylation was determined by measuring radioactivity with a scintillation counter. Controls were included in every assay to measure background activity in the absence of enzyme, activity in the absence of lipids, and the maximum enzyme activity with saturating levels of the activator lipids.
(§4) Results of the protein kinase C assay are shown in Table 4 in columns labeled α, βII, γ, δ, ε, and .zeta. which represent various PKC isoenzymes. Results are show as IC50, which is the concentration of test compound needed to inhibit 50% of the protein kinase C activity in controls.

[2] = system: normal human epidermal keratinocyte (NHEK) cells; experiment: Human Keratinocyte Inhibition (3H TdR Assay); assay type: cell-based; conditions: 24 h incubation, 3H-thymidine
Procedure: Proliferating normal human epidermal keratinocyte (NHEK) cells were obtained in the second passage and grown in keratinocyte growth medium, KGM (Clonetics, Inc.) at 37° C., 5% CO2. The cells were trypsinized (0.25%), centrifuged, counted with a hemocytometer, and seeded at a concentration of 5000 cells in 100 μl well in a 96-well microtiter plate.
After the cells were allowed to attach to the microtiter plate overnight, test agents were titrated to determine the dose response. This was done by adding each test agent dilution in quadruplicate to the plate at 2× final concentration in 100 μl to bring the total volume of each well to 200 μl. Culture media with no test agent added was used as a normal control. Duplicate sets of plates were established.
After twenty-four hours of incubation with test compounds 37° C. and 5% CO2, […] of 0.01 mCi/ml tritiated thymidine (New England Nuclear) was added to each well and allowed to incubate for another 4 hours under the same conditions.
Supernatant was aspirated and discarded and […] of 0.05% trypsin (Gibco) was added to each cell. Cells were checked microscopically to determine detachment from surfaces and then harvested onto glass filters. The filters were then placed in vials to which scintillant was added and counted for one minute each in a scintillation counter.
Determine mean cpm of wells containing test agent (n=4) or KGM control (n=16). Calculate % of control by the formula: [formula]
(§5) The IC50, or connection necessary to inhibit 50% of control, of each test agent was determined by plotting % control vs log concentration for each dilution and then linear forecasting the 50% control value onto the X axis on a Quatro Pro computer program. Only regression values with a correlation coefficient greater than 0.9 were considered acceptable.

[3] = target: T2, PKC isoenzyme ε (Homo sapiens, UniProt Q02156); experiment: Protein kinase C inhibition assay, PKC isoenzyme ε; assay type: biochemical
T2 construct: made in house; host or cells: baculovirus-insect cell expression system
T2 sequence (Q02156 1-737): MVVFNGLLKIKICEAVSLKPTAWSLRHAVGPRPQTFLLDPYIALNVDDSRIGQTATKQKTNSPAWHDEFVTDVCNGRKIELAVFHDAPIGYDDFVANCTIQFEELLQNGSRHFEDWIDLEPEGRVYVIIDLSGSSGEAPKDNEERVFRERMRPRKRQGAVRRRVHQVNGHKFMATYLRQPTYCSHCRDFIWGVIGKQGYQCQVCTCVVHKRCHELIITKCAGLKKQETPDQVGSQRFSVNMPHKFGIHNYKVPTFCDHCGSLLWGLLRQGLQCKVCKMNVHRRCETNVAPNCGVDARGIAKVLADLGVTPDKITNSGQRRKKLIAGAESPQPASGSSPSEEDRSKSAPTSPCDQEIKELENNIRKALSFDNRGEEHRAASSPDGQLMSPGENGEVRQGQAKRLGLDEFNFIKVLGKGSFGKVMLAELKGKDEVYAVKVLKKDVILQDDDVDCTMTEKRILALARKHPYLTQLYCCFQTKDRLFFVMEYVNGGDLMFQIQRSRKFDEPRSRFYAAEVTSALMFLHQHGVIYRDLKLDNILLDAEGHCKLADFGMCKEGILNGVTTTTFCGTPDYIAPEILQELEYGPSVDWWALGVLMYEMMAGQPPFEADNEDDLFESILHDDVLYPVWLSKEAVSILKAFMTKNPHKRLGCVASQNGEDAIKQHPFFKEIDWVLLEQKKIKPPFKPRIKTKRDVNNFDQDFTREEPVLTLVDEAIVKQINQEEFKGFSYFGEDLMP
Procedure: as §1, §2, §3, §4

[4] = system: MCF-7 human breast tumor cell line; experiment: Human Tumor Cell Growth Inhibition (3H-thymidine incorporation); assay type: cell-based
Procedure: MCF-7 a human breast tumor cell line was obtained from the National Cancer Institute, Frederick, Md. Tumor cells were trypsinized with 0.05% trypsin obtained from GIBCO (Grand Island Biological Co. Laboratories, Grand Island, N.Y.), counted with a hemacytometer and seeded at a concentration of 7,500 cells/well in a 96 well microtiter plate and allowed to attach to the surface overnight. To determine a concentration response, test agents were serially diluted an […] added at 2× final concentration to quadruplicate cultures to bring the total volume of each well to […]. The microtiter plate was then incubated at 37° C., 5% CO2 for 24 hrs with ^3 H-thymidine added at a concentration of 0.5 mCi/well in […] of 0.05% trypsin (GIBCO) was added to each well. Cells were checked microscopically to determine detachment from surfaces, and plates were harvested with a cell harvester (PHD, Cambridge Technology, Inc.). Filter paper corresponding to wells were placed in scintillation vials and counted to determine the amount ^3 H-thymidine incorporated by the cells. Counts per minute (CPM) of quadruplicate cultures were averaged and a percent of control calculated for each test agent concentration by the following formula: [formula]
as §5, with “The IC50” for “The IC50,”, “or concentration” for “or connection”, “inhibit the proliferation of cells by” for “inhibit”, “50% compared to” for “50% of”, “a Quattro” for “a Quatro”, “greater then” for “greater than”

[5] = target: T3, PKC isoenzyme βII (Homo sapiens, UniProt P05771); experiment: Protein kinase C inhibition assay, PKC isoenzyme βII; assay type: biochemical
T3 construct: made in house; host or cells: baculovirus-insect cell expression system
Procedure: as §1, §2, §3, §4

[6] = Homo sapiens, MCF7, MCF-7, 24 hrs

T1 sequence (Q05655 whole entry): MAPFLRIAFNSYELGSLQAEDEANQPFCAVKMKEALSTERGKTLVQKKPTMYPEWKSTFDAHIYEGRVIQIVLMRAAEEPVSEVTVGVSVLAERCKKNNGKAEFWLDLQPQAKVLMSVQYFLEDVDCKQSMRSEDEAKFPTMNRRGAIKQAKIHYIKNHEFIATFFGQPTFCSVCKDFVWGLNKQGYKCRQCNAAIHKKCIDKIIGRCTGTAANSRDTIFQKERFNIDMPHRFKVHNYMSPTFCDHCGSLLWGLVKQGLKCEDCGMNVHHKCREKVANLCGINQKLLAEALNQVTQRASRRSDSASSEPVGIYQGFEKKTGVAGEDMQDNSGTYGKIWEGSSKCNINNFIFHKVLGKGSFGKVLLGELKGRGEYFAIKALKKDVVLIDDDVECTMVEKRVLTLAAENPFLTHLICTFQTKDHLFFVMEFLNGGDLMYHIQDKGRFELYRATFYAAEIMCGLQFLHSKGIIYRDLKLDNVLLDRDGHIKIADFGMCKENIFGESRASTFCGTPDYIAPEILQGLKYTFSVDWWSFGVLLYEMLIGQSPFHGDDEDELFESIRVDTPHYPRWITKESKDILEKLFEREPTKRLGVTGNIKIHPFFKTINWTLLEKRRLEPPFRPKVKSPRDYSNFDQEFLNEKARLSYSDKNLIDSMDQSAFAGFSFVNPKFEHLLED
T3 sequence (P05771 1-673 isoform P05771-2): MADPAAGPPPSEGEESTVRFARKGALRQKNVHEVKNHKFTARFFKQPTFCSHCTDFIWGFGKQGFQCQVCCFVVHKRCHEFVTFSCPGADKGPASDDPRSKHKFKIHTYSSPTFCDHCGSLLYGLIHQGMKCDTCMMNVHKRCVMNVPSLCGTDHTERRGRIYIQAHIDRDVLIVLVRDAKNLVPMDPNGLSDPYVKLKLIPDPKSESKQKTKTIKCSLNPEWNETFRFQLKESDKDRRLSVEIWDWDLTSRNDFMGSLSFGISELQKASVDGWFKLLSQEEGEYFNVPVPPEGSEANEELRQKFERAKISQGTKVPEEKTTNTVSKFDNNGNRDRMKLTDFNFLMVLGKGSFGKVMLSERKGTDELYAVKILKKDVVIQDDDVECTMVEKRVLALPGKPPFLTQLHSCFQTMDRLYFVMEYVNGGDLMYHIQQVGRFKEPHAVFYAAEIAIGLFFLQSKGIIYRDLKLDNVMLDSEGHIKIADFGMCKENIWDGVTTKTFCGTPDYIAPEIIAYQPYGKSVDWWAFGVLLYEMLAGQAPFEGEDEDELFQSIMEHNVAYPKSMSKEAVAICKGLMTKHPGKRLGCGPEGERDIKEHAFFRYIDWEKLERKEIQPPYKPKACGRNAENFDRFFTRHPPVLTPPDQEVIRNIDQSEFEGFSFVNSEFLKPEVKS

SMILES	IC50 ([1]; IC50 PKC δ) [µM]	IC50 ([2]; Homo sapiens) [µM]	IC50 ([3]; IC50 PKC ε) [µM]	IC50 [4, 6] [µM]	IC50 ([5]; IC50 PKC βII) [µM]	IC50 ([1]; read-out: IC50 PKC δ) [µM]	IC50 ([3]; read-out: IC50 PKC ε) [µM]	IC50 ([5]; read-out: IC50 PKC βII) [µM]	IC50 [2] [µM]	IC50 ([4]; MCF-7, 24 hrs) [µM]
O=C1C(Nc2ccc(S(=O)(=O)NCCNc3ccc([N+](=O)[O-])cn3)cc2)=CC(=Nc2ccc(S(=O)(=O)NCCNc3ccc([N+](=O)[O-])cn3)cc2)c2ccccc21 [Compound 3ac]	147	0.08	> 150	0.16	89					
Cc1cc(C)nc(NS(=O)(=O)c2cccc(N=C3C=C(Nc4cccc(S(=O)(=O)Nc5cc(C)cc(C)n5)c4)C(=O)c4ccccc43)c2)c1 [Compound 3ae]		< 0.39		4.8		85	> 150	52		
COc1cc(NS(=O)(=O)c2ccc(N=C3C=C(Nc4ccc(S(=O)(=O)Nc5cc(OC)cc(OC)c5)cc4)C(=O)c4ccccc43)cc2)cc(OC)c1 [Compound 3af]		< 0.39		0.83		> 150	111	143		
Cc1cc(C)nc(NS(=O)(=O)c2cc(N=C3C=C(Nc4ccc(C)c(S(=O)(=O)Nc5cc(C)cc(C)n5)c4)C(=O)c4ccccc43)ccc2C)c1 [Compound 3ag]				2.4		30	8	17		
Cc1cc(C)nc(NC(=O)c2ccc(N=C3C=C(Nc4ccc(C(=O)Nc5cc(C)cc(C)n5)cc4)C(=O)c4ccccc43)cc2)c1 [Compound 3ah]		1.4		1.4		> 150	> 150	145		
Cc1cc(C)nc(NC(=O)c2ccc(N=C3C=C(Nc4ccc(C(=O)Nc5nc(C)cc(C)n5)cc4)C(=O)c4ccccc43)cc2)n1 [Compound 3ai]		0.16		0.03		> 150	> 105	101		
Cc1noc(NS(=O)(=O)c2ccc(N=C3C=C(Nc4ccc(S(=O)(=O)Nc5onc(C)c5C)cc4)C(=O)c4ccccc43)cc2)c1C [Compound 3b]		11.6				31	143	29		
Cc1cc(C)nc(NS(=O)(=O)c2ccc(N=C3C=C(Nc4ccc(S(=O)(=O)Nc5nc(C)cc(C)n5)cc4)C(=O)c4ccccc43)cc2)n1 [Compound 3c]						72	> 150	7	0.52	7.03
Cc1nnc(NS(=O)(=O)c2ccc(N=C3C=C(Nc4ccc(S(=O)(=O)Nc5nnc(C)s5)cc4)C(=O)c4ccccc43)cc2)s1 [Compound 3e]		8.7				43	> 150	14		
O=C1C(Nc2ccc(S(=O)(=O)Nc3ccc(Cl)nn3)cc2)=CC(=Nc2ccc(S(=O)(=O)Nc3ccc(Cl)nn3)cc2)c2ccccc21 [Compound 3l]		4.3				78	> 150	24		
Cc1cc(NS(=O)(=O)c2ccc(N=C3C=C(Nc4ccc(S(=O)(=O)Nc5cc(C)on5)cc4)C(=O)c4ccccc43)cc2)no1 [Compound 6a]						34	145	24	1.2	
COc1cc(NS(=O)(=O)c2ccc(N=C3C=C(Nc4ccc(S(=O)(=O)Nc5cc(OC)cc(OC)c5)cc4)C(=O)c4ccccc43)cc2)cc(OC)c1 [Compound 6af]							> 150	> 150		1.2
Cc1cc(NS(=O)(=O)c2ccc(N=C3C=C(Nc4ccc(S(=O)(=O)Nc5cc(C)nc(C)n5)cc4)C(=O)c4ccccc43)cc2)nc(C)n1 [Compound 6d]						47		39	2.5	17.9
Cc1nnc(NS(=O)(=O)c2ccc(N=C3C=C(Nc4ccc(S(=O)(=O)Nc5nnc(C)s5)cc4)C(=O)c4ccccc43)cc2)s1 [Compound 6e]						35		24	8.6	
Cc1ccnc(NS(=O)(=O)c2ccc(N=C3C=C(Nc4ccc(S(=O)(=O)Nc5nccc(C)n5)cc4)C(=O)c4ccccc43)cc2)n1 [Compound 6f]						43			1.4	17.7
COc1cc(NS(=O)(=O)c2ccc(N=C3C=C(Nc4ccc(S(=O)(=O)Nc5cc(OC)nc(OC)n5)cc4)C(=O)c4ccccc43)cc2)nc(OC)n1 [Compound 6g]						> 150		33	1.4	21
COc1cnc(NS(=O)(=O)c2ccc(N=C3C=C(Nc4ccc(S(=O)(=O)Nc5ncc(OC)cn5)cc4)C(=O)c4ccccc43)cc2)nc1 [Compound 6h]						> 150		97	1.2	14.9
O=C1C(Nc2ccc(S(=O)(=O)Nc3ccccn3)cc2)=CC(=Nc2ccc(S(=O)(=O)Nc3ccccn3)cc2)c2ccccc21 [Compound 6i]						120		47	7.3	20
COc1ccc(NS(=O)(=O)c2ccc(N=C3C=C(Nc4ccc(S(=O)(=O)Nc5ccc(OC)nn5)cc4)C(=O)c4ccccc43)cc2)nn1 [Compound 6j]						113		47	0.82	10.9
O=C1C(Nc2ccc(S(=O)(=O)Nc3ccc(Cl)nn3)cc2)=CC(=Nc2ccc(S(=O)(=O)Nc3ccc(Cl)nn3)cc2)c2ccccc21 [Compound 6l]						50	> 150	29	3.3	
O=C1C(Nc2ccc(S(=O)(=O)NCc3ccccn3)cc2)=CC(=Nc2ccc(S(=O)(=O)NCc3ccccn3)cc2)c2ccccc21 [Compound 6n]							149	> 150	0.5	0.75

From patent publication US5292737A, “N,N'-bis(sulfonamido)-2-amino-4-iminonaphthalen-1-ones and N,N'-bis(amido)-2-amino-4-iminonaphthalen-1-ones” (Sphinx Pharmaceuticals Corporation, priority 1992, dated 1994)
